Values after ≈ are worked out from the molar mass of the structure shown.
What was measured:
[1] = test system: Ctenocephalides felis adult; test: Antiparasitic activity after administration to rats: fleas; type: in vivo; details: 11.97 mg/kg sc, Ctenocephalides felis adult
Summary of the method: (§1)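 Compounds dissolved in glycerol formal, given i.p. or s.c. to rats, 5 per group. Infestation with 30 D. variabilis nymphs (days −2, 7, 14, 21, 28, 35) and 30 adult C. felis (days −1, 8, 15, 22, 29, 36), with counts on days 2, 9, 16, 23, 30, 37. Percent efficacy compares mean live attached ticks or live fleas with a placebo-treated group.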

[2] = Evaluation of pharmacokinetics in vivo (rat); details: concentration of Parent Drug A after admin. of the named substance
Protocol: Evaluation of Pharmacokinetics (In Vivo) To evaluate the pharmacokinetics of test substances in vivo, these test substances are dissolved in appropriate formulation vehicles (ethanol, dimethyl sulfoxide, PEG400, glycerol formal etc.), or mixtures thereof. The test substances are then administered to rats or dogs intravenously, orally or subcutaneously. The intravenous application is performed as bolus. Administered doses range usually between 0.1 to 5 mg/kg, however, doses for subcutaneous and oral administration can exceed this range up to doses of 30 mg/kg. Blood samples are retrieved via a catheter, exsanguination or venous puncture in vials containing appropriate anticoagulants, such as lithium heparinate or potassium EDTA. Plasma is generated from the blood via centrifugation. Blood samples are taken over an appropriate time interval, usually lasting up to 144 h after administration. If necessary, samples from later time points can also be taken. If possible, time points are chosen so that the initial absorption phase, the maximum plasma concentration (Cmax), and exposure within a certain time interval (AUC(0-t))aer described. Furthermore, it is possible to also retrieve organ-, tissue- and urine samples. The quantitative measurement of the test substances in the samples is performed using calibration curves in the respective matrices. The protein content of the samples is precipitated using acetonitrile or methanol. Thereafter, the samples are separated using HPLC in combination with reversed phase chromatography columns. The HPLC system is coupled to a triple quadrupole mass spectrometer via an electrospray interface. The evaluation of the plasma concentration/time profiles are afterwards evaluated using a validated pharmacokinetics evaluation program. […] Relative bioavailability (Frel) was used to describe the exposure of parent drug after prodrug administration compared to the exposure of parent drug after direct administration of compound A which was normalised to 100%.

[3] = Degradation of prodrugs and release of parent drug in dog plasma; type: in vitro ADME; details: male, Beagle, dog plasma (EDTA stabilized), 37° C., percent area of prodrug at t0
Protocol: Measurement of Release of Parent Drug in Dog Plasma 1 mg of the test compound was dissolved in 0.5 mL acetonitrile/dimethylsulfoxide 9:1. For complete dissolution the HPLC vial was shaken and treated with ultrasound. 20 μL of this solution were added to 1 mL of dog plasma (Beagle, male; EDTA stabilized) under vortexing at a temperature of 37° C. Aliquots (100 μL each) were taken at 0.17, 0.5, 1, 1.5, 2 and 4 hours. Each aliquot was transferred to a vial containing 300 μL of acetonitrile/citric acid buffer pH 3 80:20. These solutions were centrifuged at 5000 rpm for 10 minutes. The supernatant was analysed by HPLC (Method 8) to determine the amount of the test compound. In addition, the reaction mixture was analysed by method 9 (HPLC-MS) at the final timepoint. Both decrease of the prodrug concentration and increase of parent drug concentration were monitored. All data is given as percent area of the prodrug at t0.

[4] = Measurement of stability of prodrugs in buffer at pH 7.4; type: physicochemical; details: PBS buffer pH 7.4, 37° C., HPLC peak area, read-out: % Recovery after 24 h (stability at pH 7.4)
Summary of the method: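 Test compound (0.15 mg) in DMSO/acetonitrile was mixed with PBS pH 7.4 and held at 37 °C for 24 h. Remaining compound was followed by HPLC as peak area percentage of total area. The final time point was also analysed by HPLC-MS.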

[5] = Measurement of solubility in buffer at pH 6.5; type: physicochemical; details: aqueous buffer, kinetic from dmso stock; PBS buffer pH 6.5, shaken 24 h at rt, LC-MSMS; read-out: Solubility of example compounds at pH 6.5
Summary of the method: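 DMSO stock (50 g/L) diluted into PBS pH 6.5, nominal final […], shaken 24 h at rt. After centrifugation, supernatant concentration quantified by LC-MSMS against a 1.2–600 ng/mL calibration curve.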

[6] = test system: Dermacentor variabilis nymph; test: Antiparasitic activity after administration to rats: ticks; type: in vivo; details: 11.97 mg/kg sc, Dermacentor variabilis nymph
Summary of the method: as §1

## N#CC1(N(COC(=O)/C=C/C(=O)O)C(=O)c2cc(-c3cnn(-c4c(Cl)cc(C(F)(C(F)(F)F)C(F)(F)F)cc4OC(F)(F)F)c3)ccc2Cl)CC1 [Example 13, (2E)-4-{[(2-Chloro-5-{1-[2-chloro-4-(1,1,1,2,3,3,3-heptafluoropropan-2-yl)-6-(trifluoromethoxy)phenyl]-1H-pyrazol-4-yl}benzoyl)(1-cyanocyclopropyl)amino]methoxy}-4-oxobut-2-enoic acid]
[1]; study day 2
  In-vivo Efficacy SD2: 100%
[1]; study day 9
  In-vivo Efficacy SD9: 97%
[1]; study day 16
  In-vivo Efficacy SD16: 96%
[1]; study day 23
  In-vivo Efficacy SD23: 79%
[1]; study day 30
  In-vivo Efficacy SD30: 57%
[1]; study day 37
  In-vivo Efficacy SD37: 51%
[2]; iv bolus
  AUC(0-144 h)norm of parent drug A: 7.3 kg·h/L
[2]; sc
  AUC(0-144 h)norm of parent drug A: 5.9 kg·h/L
[3]; 0.17 h
  recovery at 0.17 h, 39 µg/mL: 95%
[3]; 0.5 h
  recovery at 0.5 h, 39 µg/mL: 79%
[3]; 1 h
  recovery at 1 h, 39 µg/mL: 51%
[3]; 1.5 h
  recovery at 1.5 h, 39 µg/mL: 33%
[3]; 2 h
  recovery at 2 h, 39 µg/mL: 18%
[3]; 4 h
  recovery at 4 h, 39 µg/mL: 0%
[4]
  recovery at 24 h, 0.1 mg/mL: 97%
[5]
  solubility at 24 h: 18 µg/mL (≈ 23.2 µM)
[6]; study day 2
  In-vivo Efficacy SD2: 100%
[6]; study day 9
  In-vivo Efficacy SD9: 100%
[6]; study day 16
  In-vivo Efficacy SD16: 99%
[6]; study day 23
  In-vivo Efficacy SD23: 77%
[6]; study day 30
  In-vivo Efficacy SD30: 59%
[6]; study day 37
  In-vivo Efficacy SD37: 49%
